The text below walks through data of patent US6355633B1, “Aryl sulfonic acids and derivatives as FSH antagonists” (American Home Products Corporation, priority 1999, dated 2002).

What is called IC50 is the concentration that gives 50% inhibition. A high value points to weaker potency.

In the first experiment the target is T1, FSH receptor (Rattus norvegicus, UniProt P20395).
T1 construct: endogenous in cells; host or cells: primary ovarian granulosa cells of DES-treated immature Sprague-Dawley rats
T1 sequence (P20395 18-692): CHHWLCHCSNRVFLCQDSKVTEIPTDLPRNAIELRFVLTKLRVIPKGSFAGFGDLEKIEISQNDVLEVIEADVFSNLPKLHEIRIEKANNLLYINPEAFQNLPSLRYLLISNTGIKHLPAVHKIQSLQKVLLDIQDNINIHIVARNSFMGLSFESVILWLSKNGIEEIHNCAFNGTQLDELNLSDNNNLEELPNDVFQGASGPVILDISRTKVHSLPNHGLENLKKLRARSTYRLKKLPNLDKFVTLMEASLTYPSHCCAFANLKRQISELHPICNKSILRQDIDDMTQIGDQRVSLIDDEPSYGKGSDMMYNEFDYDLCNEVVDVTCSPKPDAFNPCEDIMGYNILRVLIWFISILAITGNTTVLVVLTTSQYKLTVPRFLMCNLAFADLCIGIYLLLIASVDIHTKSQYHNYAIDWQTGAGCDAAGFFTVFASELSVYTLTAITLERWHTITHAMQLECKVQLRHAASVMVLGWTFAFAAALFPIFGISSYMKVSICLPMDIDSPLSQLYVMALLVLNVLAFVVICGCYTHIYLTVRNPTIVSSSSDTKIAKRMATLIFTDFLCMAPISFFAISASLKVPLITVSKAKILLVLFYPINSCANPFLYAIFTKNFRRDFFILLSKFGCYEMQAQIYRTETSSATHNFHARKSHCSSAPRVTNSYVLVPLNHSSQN
Description: In Vitro Bio-test Procedure of Agonists and Antagonists to the FSH Receptor Using Primary Cultures of Rat Granulosa (estradiol secretion). The format is cell-based.
Conditions: not given
The procedure:
In Vitro Bio-test Procedure of Agonists and Antagonists to the FSH Receptor Using Primary Cultures of Rat Granulosa
Materials and Methods: Reagents
The concentration of vehicle was maintained constant throughout all dilutions.
Preparation of Granulosa Cells: Twenty-four day-old immature female Sprague-Dawley rats (Charles River Laboratories, Wilmington, Mass.) were used as donors for ovarian granulosa cells. The animals were treated by single daily injections of 100 mg/kg diethylstilbestrol (DES) in oil over three days. On the fourth day, animals were sacrificed by CO2 asphyxiation and the ovaries were removed. Ovaries were washed three times in 50 mL of sterile HEPES-buffered saline (HBS, pH 7.4). Granulosa cells were harvested by incubating ovaries in a hypertonic medium consisting of serum-free McCoy*s SA medium (Gibco Life Sciences, Grand Island, N.Y.) supplemented with […], […], 5 ng/mL sodium selenite (ITS, Sigma Chemical Co., St. Louis Mo.), […] L-glutamine, 100 nM testosterone, 100 nM DES and 100 U/mL penicillin/[…]/250 ng/mL amphotericin B (antibiotic/antimycotic, Gibco) containing 0.5 M sucrose and 0.1 mM EGTA. Ovaries were then incubated for 45 min. at 37 C. in a humidified incubator gassed with 95% air/5% CO2. They were washed 3 times with 10 mL isotonic medium (hypertonic medium without sucrose and EGTA) and incubated another 45 min. in isotonic medium at 37 C. Granulosa cells were harvested by squeezing the ovaries between two sterile glass microscope slides. Isolated granulosa cells were then placed in an 50 mL centrifuge tube and washed two times by the addition of 50 mL serum-free McCoy*s 5A medium followed by centrifugation at 700×g for 5 min. After the final spin, the cells were resuspended by gentle trituration in 25 mL serum-free medium, an aliquot counted in a hemocytometer and viability estimated by trypan blue exclusion. Cells were plated into 24-well Nunc tissue culture plates at 200,000 viable cells/well in […].
Procedure: Following plating of the cells, the plates are incubated at 37 C for 2-4 hours at which time the treatments are added to the cells. Treatments are added to the wells at 2× the desired final concentration in […] in isotonic medium containing 0.2% BSA. The cells are incubated at 37 C. for 72 h. At the end of the incubation period, the medium is removed from the wells and tested for estradiol concentration by radioimmunoassay.
Experimental Groups: In the 24-well format, the plate was divided into 6 columns of 4 wells/column. One plate per compound was used to test either agonist or antagonist modes. […]
Four different doses of compound were tested in the antagonist mode. In addition, one column was used for a negative control (vehicle alone) and the other remaining column for a positive control (ED50 of FSH alone).
The doses of compound chosen to test were extrapolated from the initial functional screening process. Along with the plates testing compounds, another plate was run in parallel using a dose-response of FSH (0.01-100 ng/mL) as a positive control.
Analysis of Results: Estradiol was expressed as pg/mL. Estradiol secretion in agonist mode, or the ability of the compound to inhibit FSH-induced estradiol secretion in antagonist, was compared to the appropriate negative and positive controls. Data were analyzed statistically by analysis of variance with Huber weighting of log transformed data. Paired differences were determined using the LSD test
Reference Compounds: Test compounds were compared to the effect of purified or recombinant human FSH.
`COCCNS(=O)(=O)c1cc(C(=O)Nc2ccc(/C=C/c3ccc(NC(=O)c4ccc(OC)c(S(=O)(=O)NCCOC)c4)cc3S(=O)(=O)O)c(S(=O)(=O)O)c2)ccc1OC` [Example 30m, 2,2′-[(E)-1,2-Ethenediyl]bis[5-[[4-methoxy-3-[[(2-methoxyethyl)amino]sulfonyl]benzoyl]amino]benzenesulfonic Acid]] showed an IC50 of 6700 nM.

The compound `COc1ccc(C(=O)Nc2ccc(/C=C/c3ccc(NC(=O)c4ccc(OC)c(S(=O)(=O)N5CCCC5)c4)cc3S(=O)(=O)O)c(S(=O)(=O)O)c2)cc1S(=O)(=O)N1CCCC1` [Example 33e, 2,2′-[(E)-1,2-Ethenediyl]bis[5-[[4-methoxy-3-(1-pyrrolidinylsulfonyl)benzoyl]amino]benzenesulfonic Acid]] gave a 50% inhibitory concentration (IC50) of 2100 nM.

As to `COc1ccc(C(=O)Nc2ccc(/C=C/c3ccc(NC(=O)c4ccc(OC)c(S(=O)(=O)N5CCN(C=O)CC5)c4)cc3S(=O)(=O)O)c(S(=O)(=O)O)c2)cc1S(=O)(=O)N1CCN(C=O)CC1` [Example 34b, 2,2′-[(E)-1,2-Ethenediyl]bis[5-[[3-[(4-formyl-1-piperazinyl)sulfonyl]-4-methoxybenzoyl]amino]benzenesulfonic Acid]], the IC50 was 4900 nM.

With `O=C(Nc1ccc(/C=C/c2ccc(NC(=O)c3ccc(OC4CCOCC4)c(S(=O)(=O)N4CCOCC4)c3)cc2S(=O)(=O)O)c(S(=O)(=O)O)c1)c1ccc(OC2CCOCC2)c(S(=O)(=O)N2CCOCC2)c1` [Example 30r, 2,2′-[(E)-1,2-Ethenediyl]bis[5-[[3-(4-morpholinylsulfonyl)-4-[(tetrahydro-2H-pyran-4-yl)oxy]benzoyl]amino]benzenesulfonic Acid]], the IC50 was found to be 1100 nM.

Regarding `COc1ccc(C(=O)Nc2ccc(/C=C/c3ccc(NC(=O)c4ccc(OC)c(S(=O)(=O)N5CCS(=O)(=O)CC5)c4)cc3S(=O)(=O)O)c(S(=O)(=O)O)c2)cc1S(=O)(=O)N1CCS(=O)(=O)CC1` [Example 30k, 2,2′-[(E)-1,2-Ethenediyl]bis[5-[[3-[(1,1-dioxido-4-thiomorpholinyl)sulfonyl]-4-methoxybenzoyl]amino]benzenesulfonic Acid]], the IC50 stood at 3100 nM.

Consider `COCCOCCOc1ccc(C(=O)Nc2ccc(/C=C/c3ccc(NC(=O)c4ccc(OCCOCCOC)c(S(=O)(=O)N5CCOCC5)c4)cc3S(=O)(=O)O)c(S(=O)(=O)O)c2)cc1S(=O)(=O)N1CCOCC1` [Example 30a, 2,2′-[(E)-1,2-Ethenediyl]bis[5-[[4-[2-(2-methoxyethoxy)ethoxy]-3-(4-morpholinylsulfonyl)benzoyl]amino]benzenesulfonic Acid]], for which the IC50 was 1900 nM.

In the case of `COc1ccc(C(=O)Nc2ccc(/C=C/c3ccc(NC(=O)c4ccc(OC)c(S(=O)(=O)N5CCOCC5)c4)cc3S(=O)(=O)O)c(S(=O)(=O)O)c2)cc1S(=O)(=O)N1CCOCC1` [Example 30s, 2,2′-[(E)-1,2-Ethenediyl]bis[5-[[4-methoxy-3-(4-morpholinylsulfonyl)benzoyl]amino]benzenesulfonic Acid]], the IC50 worked out at 1200 nM.

The same experiment, now with this note: antagonist mode, inhibition of FSH-induced estradiol secretion (ED50 of FSH, 0.5 ng/mL), rat granulosa cells, 72 h.
With “2,2′-[(E)-1,2-Ethenediyl]bis[5-[[4-(methylthio)-3-(4-morpholinylsulfonyl)benzoyl]amino]benzenesulfonic Acid] [Example 30b]”, the IC50 worked out at 1500 nM.

`COc1ccc(C(=O)Nc2ccc(/C=C/c3ccc(NC(=O)c4ccc(S(C)(=O)=O)cc4)cc3S(=O)(=O)O)c(S(=O)(=O)O)c2)cc1S(=O)(=O)N1CCOCC1` [Example 30g] gave an IC50 of 2400 nM.

`CS(=O)(=O)c1ccc(C(=O)Nc2ccc(/C=C/c3ccc(NC(=O)c4ccc(S(C)(=O)=O)c([N+](=O)[O-])c4)cc3S(=O)(=O)O)c(S(=O)(=O)O)c2)cc1[N+](=O)[O-]` [Example 30c, 2.2′-[(E)-1,2-Ethenediyl]bis[5-[[(4-methylsulfonyl)-3-(nitro)-benzoyl]amino]benzenesulfonic Acid]] returned an IC50 of 3800 nM.
